Results from patent US8476434B2, “Protein kinase modulators and method of use” (Amgen Inc., priority 2004, dated 2013).

Target: T1, LCK KD GST (225-509) (Homo sapiens, UniProt P06239)
T1 construct: LCK KD GST (225-509); GST
Assay: LCK Homogenous Time Resolved Fluorescent (HTRF) kinase assay
Format: biochemical
Method: The LCK HTRF assay begins with LCK in the presence of ATP phosphorylating the biotinylated peptide Gastrin. The reaction incubates for 90 min. To quench the assay detection reagents are added which both stop the reaction by diluting out the enzyme and chelating the metals due to the presence of EDTA. Once the detection reagents are added the assay incubates for 30 min to allow for equilibration of the detection reagents.
Buffer conditions are as follows: 50 mM HEPES pH 7.5, 50 mM NaCl, 20 mM MgCl, 5 mM MnCl, 2 mM DTT, 0.05% BSA.
The assay is quenched and stopped with 160 μL of detection reagent. Detection reagents are as follows: Buffer made of 50 mM Tris, pH 7.5, 100 mM NaCl, 3 mM EDTA, 0.05% BSA, 0.1% Tween20.
The assay plate is read in either a Discovery or a RubyStar.

T1 sequence (P06239 225-509): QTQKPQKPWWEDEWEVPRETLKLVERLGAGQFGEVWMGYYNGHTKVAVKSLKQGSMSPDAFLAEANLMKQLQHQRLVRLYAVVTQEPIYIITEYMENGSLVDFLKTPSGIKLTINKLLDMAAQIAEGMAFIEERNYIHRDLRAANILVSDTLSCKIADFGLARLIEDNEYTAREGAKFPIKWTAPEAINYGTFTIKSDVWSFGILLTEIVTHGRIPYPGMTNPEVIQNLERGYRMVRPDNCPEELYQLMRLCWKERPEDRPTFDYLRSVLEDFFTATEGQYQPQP

IC50 [nM] | SMILES
< 1000 | CNc1nccc(-c2cccnc2Oc2cc(C(=O)Nc3cc(C(F)(F)F)ccc3N3CCCCC3)ccc2C)n1
< 1000 | CNc1nccc(-c2cccnc2Oc2cc(C(=O)Nc3cc(C(F)(F)F)ccc3N(C)C3CCN(C)CC3)c(F)cc2C)n1 [2-fluoro-4-methyl-5-((3-(2-(methylamino)-4-pyrimidinyl)-2-pyridinyl)oxy)-N-(2-(methyl(1-methyl-4-piperidinyl)amino)-5-(trifluoromethyl)phenyl)benzamide]
< 1000 | CNc1nccc(-c2cccnc2Oc2ccc(F)c(C(=O)Nc3cc(C(F)(F)F)ccc3N(C)C3CCN(C)C3)c2)n1 (centres unmarked) [2-fluoro-5-((3-(2-(methylamino)-4-pyrimidinyl)-2-pyridinyl)oxy)-N-(2-(methyl(1-methyl-3-pyrrolidinyl)amino)-5-(trifluoromethyl)phenyl)benzamide]
< 1000 | CNc1nccc(-c2cccnc2Oc2ccc(F)c(C(=O)Nc3cccc(C(C)C)c3)c2)n1 [2-fluoro-5-((3-(2-(methylamino)-4-pyrimidinyl)-2-pyridinyl)oxy)-N-(3-(1-methylethyl)phenyl)benzamide]
< 1000 | CNc1nccc(-c2cccnc2Oc2cccc(NC(=O)c3cc(Cl)cc(Cl)c3)c2)n1 [3,5-dichloro-N-(3-((3-(2-(methylamino)-4-pyrimidinyl)-2-pyridinyl)oxy)phenyl)benzamide]
< 1000 | CNc1cc(-c2cccnc2Oc2cc(NC(=O)c3cccc(C(C)C)c3)ccc2C)ccn1 [3-(1-methylethyl)-N-(4-methyl-3-((2′-(methylamino)-3,4′-bipyridin-2-yl)oxy)phenyl)benzamide]
< 1000 | CCN(CC)CCNc1nccc(-c2cccnc2Oc2cc(C(=O)Nc3cc(C(F)(F)F)ccc3N3CCOCC3)ccc2C)n1 [3-((3-(2-((2-(diethylamino)ethyl)amino)-4-pyrimidinyl)-2-pyridinyl)oxy)-4-methyl-N-(2-(4-morpholinyl)-5-(trifluoromethyl)phenyl)benzamide]
< 1000 | CNc1nccc(-c2cccnc2Oc2cccc(C(=O)Nc3cccc(C(C)C)c3)c2)n1 [3-((3-(2-(methylamino)-4-pyrimidinyl)-2-pyridinyl)oxy)-N-(3-(1-methylethyl)phenyl)benzamide]
< 1000 | CCNc1ncnc(-c2cccnc2Oc2cc(C(=O)Nc3cccc(C(C)C)c3)ccc2C)n1 [3-((3-(4-(ethylamino)-1,3,5-triazin-2-yl)-2-pyridinyl)oxy)-4-methyl-N-(3-(1-methylethyl)phenyl)benzamide]
< 1000 | CC(C)c1cccc(NC(=O)c2cccc(Nc3ncccc3-c3ncnc(N)n3)c2)c1 [3-((3-(4-amino-1,3,5-triazin-2-yl)-2-pyridinyl)amino)-N-(3-(1-methylethyl)phenyl)benzamide]
< 1000 | CNc1nccc(-c2cc(N(C)CCCN(C)C)cnc2Oc2cc(C(=O)Nc3cccc(C(C)C)c3)ccc2C)n1 [3-((5-((3-(dimethylamino)propyl)(methyl)amino)-3-(2-(methylamino)-4-pyrimidinyl)-2-pyridinyl)oxy)-4-methyl-N-(3-(1-methylethyl)phenyl)benzamide]
< 1000 | CNc1nccc(-c2cccnc2Oc2cc(NC(=O)c3cccc(N(C)C)c3)cc(C(F)(F)F)c2)n1 [3-(dimethylamino)-N-(3-((3-(2-(methylamino)-4-pyrimidinyl)-2-pyridinyl)oxy)-5-(trifluoromethyl)phenyl)benzamide]
< 1000 | CNc1nccc(-c2cccnc2Oc2cc(Br)cc(C(=O)Nc3cc(C(F)(F)F)ccc3N(C)[C@H]3CCN(C)C3)c2)n1 [3-bromo-5-((3-(2-(methylamino)-4-pyrimidinyl)-2-pyridinyl)oxy)-N-(2-(methyl((3S)-1-methyl-3-pyrrolidinyl)amino)-5-(trifluoromethyl)phenyl)benzamide]
< 1000 | CNc1nccc(-c2cccnc2Oc2cc(Br)cc(C(=O)Nc3cccc(C(C)C)c3)c2)n1 [3-bromo-5-((3-(2-(methylamino)-4-pyrimidinyl)-2-pyridinyl)oxy)-N-(3-(1-methylethyl)phenyl)benzamide]
